These results are taken from ChEMBL document CHEMBL1155481, “N-Hydroxybenzimidazole inhibitors of ExsA MAR transcription factor in Pseudomonas aeruginosa: In vitro anti-virulence activity and metabolic stability” (Bioorg Med Chem Lett, 2010).

Each structure is given as a SMILES string. Some results are limits rather than exact numbers.

A short description of data set [1]: Chemical stability of the compound. The class given is physicochemical.
Data set [2] concerns the target T1, HTH-type transcriptional regulator ExsA (Pseudomonas aeruginosa (strain ATCC 15692 / PAO1 / 1C / PRS 101 / LMG12228), UniProt P26993).
T1 sequence (P26993 whole entry): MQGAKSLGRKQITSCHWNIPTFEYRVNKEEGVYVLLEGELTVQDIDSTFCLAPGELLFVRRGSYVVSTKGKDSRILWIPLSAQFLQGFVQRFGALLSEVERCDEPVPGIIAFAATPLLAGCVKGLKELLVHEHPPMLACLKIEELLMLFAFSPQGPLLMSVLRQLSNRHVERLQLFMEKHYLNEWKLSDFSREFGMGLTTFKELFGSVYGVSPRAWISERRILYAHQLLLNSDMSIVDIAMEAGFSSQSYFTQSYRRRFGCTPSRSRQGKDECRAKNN
The data set can be described thus: Inhibition of Pseudomonas aeruginosa PAO1 ExsA DNA binding activity.

In a further data set the test system is J774.A1. The data set can be described thus: Cytoprotective activity against Pseudomonas aeruginosa-induced cytotoxicity in mouse J774A1 cells assessed as LDH release at 100 uM. Format: functional. Background: LDH in the medium is a marker of cell lysis.
A further data set deals with Liver microsomes. The data set can be described thus: Metabolic stability in human liver microsome. The class given is ADME.
Data set [3] concerns the target T1, HTH-type transcriptional regulator ExsA. In words: Inhibition of Pseudomonas aeruginosa 388 ExsA DNA binding activity.

A word on the IC50: it is the concentration needed to halve the response being measured. A low value points to higher potency. Regarding `CC(=O)c1ccc(/C=C/C(=O)Nc2ccc(-c3nc4c(CC(=O)O)cc([N+](=O)[O-])cc4n3O)cc2)cc1`, the Stability result in data set [1] is on record as “Stable”. In data set [2], this molecule came in with an IC50 of 3.7 µM. The Activity with J774.A1 was 65.4%.
Regarding `O=C(/C=C/c1ccc(C(O)(O)C(F)(F)F)cc1)Nc1ccc(-c2nc3ccc([N+](=O)[O-])cc3n2O)cc1`, the Stability entry in data set [1] was “Stable”. The concentration for half-maximal inhibition (IC50) in data set [2] is greater than 100 µM.
The matching figures for `CC(=O)c1ccc(/C=C/C(=O)N(CC(N)=O)c2ccc(-c3nc4ccc([N+](=O)[O-])cc4n3O)cc2)cc1`: “Stable” and greater than 47.5 µM.
For the molecule `CC(=O)c1ccc(/C=C/C(=O)Nc2ccc(-c3nc4ccc(C#N)cc4n3O)cc2)cc1`, the Stability result (in the data set on Liver microsomes; in data set [1]) was “Stable” throughout. The molecule also had a concentration for half-maximal inhibition (IC50) in data set [3] of 13 µM. In the data set with J774.A1, the Activity worked out at 19.2%.
Turning to `CN(C)c1ccc(/C=C/C(=O)Nc2ccc(-c3nc4ccc([N+](=O)[O-])cc4n3O)cc2)cn1`, the Stability entry in data set [1] is “Stable”. The IC50 in data set [2] is greater than 100 µM.
The corresponding values for `CC(=O)c1ccc(/C=C/C(=O)N(CC(N)=O)c2ccc(-c3nc4ccc(C#N)cc4n3O)cc2)cc1` are “Stable” and greater than 49 µM.
The corresponding values for `O=C(/C=C/c1ccc(-n2ccnc2)nc1)Nc1ccc(-c2nc3ccc([N+](=O)[O-])cc3n2O)cc1` are “Stable” and 31.2 µM.
On to `O=C(/C=C/c1ccc(C(F)(F)F)nc1)Nc1ccc(-c2nc3ccc([N+](=O)[O-])cc3n2O)cc1`, for which the Stability entry in data set [1] was “Stable”. Besides, the half-maximal inhibitory concentration (IC50) in data set [2] was 6.7 µM. The Activity in the data set on J774.A1 was 78.5%.
In the case of `CSc1ccc(/C=C/C(=O)Nc2ccc(-c3nc4ccc(C#N)cc4n3O)cc2)cc1`, the Stability entry in data set [1] is reported as “Stable”. Besides, the IC50 in data set [2] is 7.3 µM. In addition, the Activity in the data set on J774.A1 is listed as greater than 100%.
Turning to `CC(=O)c1ccc(/C=C/C(=O)Nc2ccc(-c3nc4ccc([N+](=O)[O-])cc4n3O)cc2)cc1`, the Stability entry (in the data set with Liver microsomes; in data set [1]) was “Stable” each time. The molecule also returned an IC50 in data set [3] of 3 µM. Besides, in the data set with J774.A1, the Activity is recorded as 22.4%.
For `CC(=O)c1ccc(/C=C/C(=O)Nc2ccc(-c3nc4ccc([N+](=O)[O-])cc4n3O)cc2)cn1`, in data set [3], the IC50 turned out to be 7.5 µM. Also, the Stability entry in data set [1] is reported as “Stable”. Moreover, the Activity with J774.A1 worked out at 12.1%.
As for `CSc1ccc(/C=C/C(=O)Nc2ccc(-c3nc4ccc([N+](=O)[O-])cc4n3O)cc2)cc1`, the Stability result in data set [1] is listed as “Stable”. In data set [2], this molecule returned an IC50 of 10.4 µM. Moreover, the Activity in the data set on J774.A1 is listed as greater than 100%.
For the molecule `CC(=O)c1ccc(/C=C/C(=O)N(CC(=O)O)c2ccc(-c3nc4ccc(C#N)cc4n3O)cc2)cc1`, the Stability entry in data set [1] is given as “Stable”. The half-inhibitory concentration (IC50) in data set [2] is greater than 51 µM.
With `CC(=O)c1ccc(/C=C/C(=O)Nc2ccc(-c3nc4c(CC(=O)O)cc([N+](=O)[O-])cc4n3O)cc2)cn1`, the Stability result in data set [1] was “Stable”. In data set [2], the IC50 worked out at 4.6 µM. The Activity in the data set with J774.A1 came out at 33.1%.
Consider `CSc1ccc(/C=C/C(=O)Nc2ccc(-c3nc4ccc([N+](=O)[O-])cc4n3O)cc2)cn1`, for which the Stability result in data set [1] is “Stable”. In addition, the half-maximal inhibitory concentration (IC50) in data set [2] is 6.9 µM. In addition, the Activity in the data set on J774.A1 was determined as 52.7%.
`CSc1ccc(/C=C/C(=O)Nc2ccc(-c3nc4ccc(C#N)cc4n3O)cc2)cn1`: the Stability result in data set [1] is “Stable”. Moreover, in data set [2], the IC50 was 3.5 µM. The Activity in the data set with J774.A1 came to 46.6%.
For the molecule `O=C(/C=C/c1ccc(F)cc1)Nc1ccc(-c2nc3ccc([N+](=O)[O-])cc3n2O)cc1`, the Stability entry in the data set with Liver microsomes is “Stable”.
